Usually AC50 stands for the concentration giving half of the maximal activity seen. In general, inhibition refers to the share of the control response that was lost under treatment. The low end stands for a response near the control, the high end for a response far below the control. The term solubility denotes the concentration that dissolves in the medium under given conditions. The term microsomal CLint denotes a measure of how fast metabolising enzymes remove a compound, apart from limits set by blood flow. Usually Papp A→B stands for the apparent permeability from the apical to the basolateral side of a cell layer. A high value points to fast passage. In general, Papp B→A refers to how fast a substance crosses the layer from the basolateral side. The efflux ratio is a quotient of directional permeabilities that is used to spot active efflux.

The text below walks through data of PMC12621200, “Giving an Enzyme Scissors: Serotonin Derivatives as Potent Organocatalytic Switches for DNA Repair Enzyme OGG1” (Journal of Medicinal Chemistry, 2025).

For data set [1], the target named is T1, OGG1 (Homo sapiens, UniProt O15527).
T1 construct: made in house
T1 sequence (O15527 whole entry): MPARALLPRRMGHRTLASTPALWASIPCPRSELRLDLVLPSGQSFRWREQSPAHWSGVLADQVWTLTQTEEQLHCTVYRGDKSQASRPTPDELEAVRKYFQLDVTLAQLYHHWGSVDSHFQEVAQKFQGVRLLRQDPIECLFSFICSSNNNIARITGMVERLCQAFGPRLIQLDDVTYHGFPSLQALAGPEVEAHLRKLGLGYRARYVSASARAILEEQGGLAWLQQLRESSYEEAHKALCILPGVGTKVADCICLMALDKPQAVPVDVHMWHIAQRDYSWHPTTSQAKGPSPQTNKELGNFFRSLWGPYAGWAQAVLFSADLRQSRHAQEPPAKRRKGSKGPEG
Nature of the data set: Biochemical fluorescence (fluorophore-quencher) assay of OGG1 incision rate, 8-oxoA substrate. The following applies: for AcLE: (1.37/#heavy atoms) × pAC50; for AC50: concentration giving 50% of the incision rate of OGG1 with APE1 (2 nM) control.

Data set [2] relates to panel of DNA glycosylases and NUDIX nucleotide binding proteins. The data set is described as follows: Selectivity: lowest IC50 in glycosylase/NUDIX panel divided by OGG1 AC50. Format: biochemical. The following applies: lowest IC50 against panel / OGG1 AC50.
The target of a further data set is T2, NUDT15 (Homo sapiens, UniProt Q9NV35).
T2 construct: made in house
T2 sequence (Q9NV35 1-164): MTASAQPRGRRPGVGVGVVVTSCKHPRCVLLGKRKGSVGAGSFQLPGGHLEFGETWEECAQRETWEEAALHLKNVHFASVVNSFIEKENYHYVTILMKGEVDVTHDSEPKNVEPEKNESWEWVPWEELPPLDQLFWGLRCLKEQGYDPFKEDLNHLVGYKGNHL
Nature of the data set: Selectivity screen, malachite green assay. It is filed as biochemical. Particulars: compound 30 at 99 µM.

In a further data set the target is T3, NUDT22 (Homo sapiens, UniProt Q9BRQ3).
T3 construct: made in house
T3 sequence (Q9BRQ3 1-303): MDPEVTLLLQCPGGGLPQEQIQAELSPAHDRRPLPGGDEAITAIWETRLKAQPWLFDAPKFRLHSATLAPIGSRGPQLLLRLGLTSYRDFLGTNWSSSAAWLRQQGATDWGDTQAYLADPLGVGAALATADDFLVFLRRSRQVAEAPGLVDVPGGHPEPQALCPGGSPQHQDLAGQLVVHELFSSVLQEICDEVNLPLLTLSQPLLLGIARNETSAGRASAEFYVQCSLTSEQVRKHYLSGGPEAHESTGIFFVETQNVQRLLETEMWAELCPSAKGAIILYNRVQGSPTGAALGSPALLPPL
Nature of the data set: Selectivity screen, malachite green assay. Format: biochemical. The following applies: compound 30 at 99 µM.

A further data set concerns the target T4, NUDT5 (Homo sapiens, UniProt Q9UKK9).
T4 construct: made in house
The data set is described as follows: Selectivity screen, malachite green assay. It is filed as biochemical. The following applies: compound 30 at 99 µM.

In a further data set the target is T5, APE1 (Homo sapiens, UniProt P27695).
T5 construct: made in house
T5 sequence (P27695 whole entry, species assumed): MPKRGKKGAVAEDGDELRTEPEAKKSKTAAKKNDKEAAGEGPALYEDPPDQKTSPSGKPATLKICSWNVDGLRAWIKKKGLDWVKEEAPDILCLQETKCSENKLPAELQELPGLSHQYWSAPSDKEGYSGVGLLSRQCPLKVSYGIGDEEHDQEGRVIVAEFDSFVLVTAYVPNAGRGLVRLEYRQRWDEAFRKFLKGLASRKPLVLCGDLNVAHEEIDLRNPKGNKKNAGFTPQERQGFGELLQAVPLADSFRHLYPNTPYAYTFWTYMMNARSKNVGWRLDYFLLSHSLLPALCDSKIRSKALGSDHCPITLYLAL
The data set is described as follows: Selectivity screen. Format: biochemical. Particulars: compound 30 at 99 µM.

For a further data set, the target named is MTH1 (Homo sapiens, UniProt P36639). Nature of the data set: Selectivity screen. It is filed as biochemical. The following applies: compound 30 at 99 µM.
The target of another data set is T6, MPG (Homo sapiens, UniProt P29372).
T6 construct: made in house
T6 sequence (P29372 18-298, species assumed): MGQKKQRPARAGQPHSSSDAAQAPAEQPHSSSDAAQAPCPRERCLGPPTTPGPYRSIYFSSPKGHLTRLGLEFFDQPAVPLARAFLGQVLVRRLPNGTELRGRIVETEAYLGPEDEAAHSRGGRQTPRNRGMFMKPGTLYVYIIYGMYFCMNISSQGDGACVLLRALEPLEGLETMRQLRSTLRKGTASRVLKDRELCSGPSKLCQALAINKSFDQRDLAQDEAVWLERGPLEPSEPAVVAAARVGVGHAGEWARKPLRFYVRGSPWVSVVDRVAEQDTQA
Nature of the data set: Selectivity screen, glycosylase inhibition in kinetic mode. It is filed as biochemical. The following applies: compound 30 at 99 µM.

A further data set deals with T7, NEIL1 (Homo sapiens, UniProt Q96FI4).
T7 construct: made in house
T7 sequence (Q96FI4 whole entry, species assumed): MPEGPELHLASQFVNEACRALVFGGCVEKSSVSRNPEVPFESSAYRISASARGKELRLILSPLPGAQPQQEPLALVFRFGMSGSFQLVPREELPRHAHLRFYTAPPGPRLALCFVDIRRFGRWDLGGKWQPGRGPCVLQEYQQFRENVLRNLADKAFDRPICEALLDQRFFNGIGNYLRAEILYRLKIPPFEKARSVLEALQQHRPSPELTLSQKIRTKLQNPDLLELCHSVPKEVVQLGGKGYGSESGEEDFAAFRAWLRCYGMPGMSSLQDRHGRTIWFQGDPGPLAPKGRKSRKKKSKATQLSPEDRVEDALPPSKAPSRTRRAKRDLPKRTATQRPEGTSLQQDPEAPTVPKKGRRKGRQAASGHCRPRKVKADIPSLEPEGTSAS
The data set is described as above. It is filed as biochemical. Particulars: compound 30 at 99 µM.

The target in the next data set is T8, NTHL1 (Homo sapiens, UniProt P78549).
T8 construct: made in house
T8 sequence (P78549 23-304): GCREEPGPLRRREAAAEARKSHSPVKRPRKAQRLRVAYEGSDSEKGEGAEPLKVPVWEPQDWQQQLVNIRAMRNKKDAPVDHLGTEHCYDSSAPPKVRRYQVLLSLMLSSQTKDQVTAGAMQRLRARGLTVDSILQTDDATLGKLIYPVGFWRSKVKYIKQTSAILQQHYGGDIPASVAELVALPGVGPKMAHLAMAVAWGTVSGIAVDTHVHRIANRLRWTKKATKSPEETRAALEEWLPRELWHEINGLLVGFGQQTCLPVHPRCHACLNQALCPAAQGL
The description is as above. It is filed as biochemical. Particulars: compound 30 at 99 µM.

In another data set the target is T9, TDG (Homo sapiens, UniProt Q13569).
T9 construct: made in house
T9 sequence (Q13569 whole entry, species assumed): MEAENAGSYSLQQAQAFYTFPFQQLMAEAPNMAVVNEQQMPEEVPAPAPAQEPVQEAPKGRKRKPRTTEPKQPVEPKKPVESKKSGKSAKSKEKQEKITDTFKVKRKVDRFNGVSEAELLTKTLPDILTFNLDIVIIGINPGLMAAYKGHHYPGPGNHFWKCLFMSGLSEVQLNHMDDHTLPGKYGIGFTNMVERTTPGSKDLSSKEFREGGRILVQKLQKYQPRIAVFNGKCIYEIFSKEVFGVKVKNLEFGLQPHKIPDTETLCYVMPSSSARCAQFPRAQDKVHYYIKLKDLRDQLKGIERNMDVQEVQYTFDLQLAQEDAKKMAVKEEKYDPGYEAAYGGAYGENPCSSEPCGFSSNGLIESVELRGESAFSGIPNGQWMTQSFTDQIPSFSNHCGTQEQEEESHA
The description is as above. Format: biochemical. The following applies: compound 30 at 99 µM.

For the next data set, the target named is UNG (Homo sapiens, UniProt P13051). The data set is described as above. It is filed as biochemical. The following applies: compound 30 at 99 µM.
Sequence of UNG (P13051 94-313 limits assumed): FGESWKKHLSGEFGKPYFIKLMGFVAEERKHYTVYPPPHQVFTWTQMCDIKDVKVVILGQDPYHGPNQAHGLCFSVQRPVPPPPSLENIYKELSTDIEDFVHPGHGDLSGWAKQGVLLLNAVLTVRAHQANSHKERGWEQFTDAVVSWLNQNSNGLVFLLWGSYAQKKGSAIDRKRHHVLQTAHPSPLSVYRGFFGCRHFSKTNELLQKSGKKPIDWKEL
The subject of data set [3] is BJ-RAS and BJ-TERT cell lines. The data set is described as follows: Resazurin cell viability assay for toxicity testing. Format: cell-based. Particulars: for toxicity in words: BJ-TERT and BJ-RAS cells, 30 at 100 μM over several days; for toxicity: incubation in BJ-RAS and BJ-TERT cell lines. (The colour change of resazurin is a common sign of viable cells or microbes.)

A short description of data set [4]: Kinetic solubility assay in PBS. It is filed as physicochemical. Particulars: for solubility at 2 h: phosphate-buffered saline, 25 °C, kinetic from dmso stock, kinetic solubility in PBS buffer (pH 7.4), read-out: aq. solubility.
Data set [5] can be described thus: Microsomal stability assay. It is filed as in vitro ADME, human. Particulars: for half-life at 2 μM: human, liver microsomes. On the technique in general: Liver microsomes are a subcellular fraction often used to study metabolism.
Data set [6] in a line: Caco-2 permeability assay. Format: in vitro ADME. Particulars: human, Caco-2, pH 7.4; for efflux ratio at 90 min, 10 μM: P app (B to A) / P app (A to B). (Caco-2 monolayers are a common model of the intestinal barrier.)
The test system of a further data set is Caco-2 cell line. The data set is described as follows: Caco-2 permeability assay. Format: in vitro ADME.
Data set [7] addresses T1, OGG1. The data set is described as follows: hOGG1 activity assay on radiolabeled 8-oxoG-containing oligonucleotide (urea-PAGE). The following applies: for stimulation of OGG1 AP lyase activity (incised substrate after 4 min): 6.25 μM TH10785, 6.25 μM 30, 10 μM 38, 10 nM hOGG1; for incision mode: elimination products of AP-site cleavage. Format: biochemical.
A further data set has as its target T10, K249A mutant OGG1 (Homo sapiens, UniProt O15527, K249A).
T10 construct: made in house
Nature of the data set: AP-lyase assay on radiolabeled AP-site-containing oligonucleotide (PAGE). The following applies: Figure S8. Format: biochemical.

Data set [8] has as its target T1, OGG1. Nature of the data set: NaBH4 Schiff-base trapping assay. The following applies: AP or 8-oxoG DNA substrates; 6.25 μM TH10785, 6.25 μM 30, 10 μM 38. It is filed as biochemical.
For a further data set, the target named is T11, S326C hOGG1 (Homo sapiens, UniProt O15527, S326C).
T11 construct: made in house
T11 sequence (O15527 whole entry S326C): as the sequence (O15527 whole entry) above, with S326C counted along it
The data set is described as follows: Fluorophore-quencher assay with OGG1 mutants. Format: biochemical. Particulars: 0.25 μM of 38, 50 nM S326C hOGG1.

The subject of data set [9] is C253Y, F319A, K249W or D268A hOGG1 (active site mutants). The data set is described as follows: Fluorophore-quencher assay with OGG1 mutants. The following applies: 0.25 μM of 38, 10 nM enzyme. Format: biochemical, human.
The target of the next data set is T12, Lys249Trp mutant of OGG1 (Homo sapiens, UniProt O15527, K249W).
T12 construct: made in house
T12 sequence (O15527 whole entry K249W): as the sequence (O15527 whole entry) above, with K249W counted along it
The data set is described as follows: Fluorophore-quencher assay with OGG1 mutants. Format: biochemical. Particulars: standard fluorescence assay.

Data set [10] concerns activated peripheral blood mononuclear cells (human T cells). Nature of the data set: Activated peripheral blood mononuclear cell proliferation assay. It is filed as cell-based.
Data set [11] in a line: Microsomal stability assay. It is filed as in vitro ADME. Particulars: pH 7.4; mouse liver microsomes.
For data set [12] the following is noted: basic nitrogen; cited from earlier work.
Where [13] appears, read: Caco-2, in the presence of P-gp inhibitor (verapamil).

≈ marks a conversion by molar mass, not a printed value. Entries after “also recorded” stand apart in the source; their conditions may differ. Like-named read-outs stand apart in the source and are kept apart here.

T10 sequence (O15527 whole entry K249A): as the sequence (O15527 whole entry) above, with K249A counted along it

At OGG1 [1], `NCCc1c(-c2cccnc2)[nH]c2ccc(O)cc12` [Compound 30, 3-(2-Aminoethyl)-2-(pyridin-3-yl)-1H-indol-5-ol] registered an AcLE of 0.456. The same molecule displayed an AC50 on OGG1 [1] (AC50 (CI95%)) of 0.58 µM. Also, at OGG1 [1] (AC50 ratio), the “improvement of potency over 1” value is on record as 10 fold. The selectivity in [2] is >150-fold. The inhibition result on NUDT15, against NUDT22, at NUDT5 and at APE1 was “No effect” throughout. The inhibition at 99 µM on MTH1 came out at 34%; against MPG, 17%; on NEIL1, 13%; at NTHL1, 25%; at TDG, 55%; against UNG it was 31%. Further, in [3], the toxicity in words result is recorded as “no detectable toxicity”. The same molecule yielded a toxicity in data set [3] above 100 µM. Further, in data set [4], the “higher aqueous solubility compared to TH10785” value is given as 58 fold. The solubility at 2 h in data set [4] (pH 7.4, aqueous buffer) was above 300 µM. The half-life at 2 μM in data set [5] (pH 7.4, human liver microsomes, read-out: t 1/2) is 3.55 h; in [5] (pH 7.4, human microsomes, read-out: microsomal half-life / metabolic stability) it was above 3.5 h. The same molecule had a k el at 2 μM in data set [5] (pH 7.4, human liver microsomes) of 5e-05 s⁻¹. Besides, the microsomal CLint at 2 μM in [5] (pH 7.4, human liver microsomes) is 8 µL/min/mg. In addition, in data set [6], the apical-to-basolateral permeability (Papp A→B) at 90 min, 10 µM came out at 0.53 ×10⁻⁶ cm/s. This molecule also registered a Papp B→A at 90 min, 10 µM in data set [6] of 2.15 ×10⁻⁶ cm/s. The efflux ratio at 90 min, 10 μM in data set [6] came to 4.1. Further, in the data set on Caco-2 cell line (setting [13]), the “P app (AB)” value was found to be 1.07 ×10⁻⁶ cm/s. Moreover, the “P app (BA)” value in the data set with Caco-2 cell line (setting [13]) amounted to 1.87 ×10⁻⁶ cm/s. In addition, in the data set with Caco-2 cell line (decrease of efflux with verapamil), the P-gp substrate assessment result was “P-gp substrate”. The “stimulation of OGG1 AP lyase activity (incised substrate after 4 min)” value (shortened to “stimulation of OGG1 AP lyase activity”) at OGG1 [7] is listed as “not significant”. In addition, at OGG1 [7], the incision mode entry was “primarily induced β-elimination and β”. The “restoration of AP-lyase activity of Lys249Ala mutant” value on K249A mutant OGG1 is “failed to restore AP-lyase activity”. Also, the “effect on level of cross-linked product (Schiff-base formation)” value (shortened to “effect on level of cross-linked product”) on OGG1 [8] is “no discernible effect”.
Turning to `NCCc1c(-c2cccnc2)[nH]c2cc(F)c(O)cc12` [Compound 38, 3-(2-Aminoethyl)-6-fluoro-2-(pyridin-3-yl)-1H-indol-5-ol], on OGG1 [1] (read-out: AC50 (CI95%)), the AC50 worked out at 0.04 µM. Also, on OGG1 [7], the “stimulation of OGG1 AP lyase activity” value was “Stimulation of OGG1 AP lyase activity was observed” and the incision mode entry is listed as “primarily induced β-elimination”. Further, the “effect on level of cross-linked product” value at OGG1 [8] is listed as “no discernible effect”. Also, on S326C hOGG1, the “effect on AP-lyase activity of Ser326Cys mutant” value was “accelerated the AP-lyase activity”. In addition, the “restoration of activity in active site mutants” value in [9] was “did not restore activity”. Moreover, the “restoration of activity of Lys249Trp mutant” value at Lys249Trp mutant of OGG1 was “failed to restore activity”.
With `c1ccc2c(NC3CCCCC3)nc(C3CC3)nc2c1` [TH10785, reference compound], the AcLE at OGG1 [1] was 0.419. For the same molecule, at OGG1 [1] (read-out: AC50 (CI95%)), the AC50 was 0.87 µM. The AcLLE on OGG1 [1] (pAC50 – clogP) is 1.57. Further, in data set [2], the selectivity is >120-fold. In addition, in data set [3], the toxicity in words entry is recorded as “some toxicity” and the toxicity was above 18 µM. For the same molecule, the effect on proliferation entry in data set [10] (CD3/CD28/IL-2 activated cells, 96 h) was “suppresses proliferation in a dose-dependent manner at 10 and 20 μM; also recorded: inhibits proliferation”. Further, the toxicity in [10] (value obtained using PBMCs) was found to be 20 µM. Further, the solubility at 2 h in data set [4] (aqueous buffer) is 6 µM (≈ 1.6 µg/mL). Also, in data set [5] (pH 7.4, human liver microsomes), the microsomal CLint at 2 μM stood at 18 µL/min/mg. Besides, the microsomal CLint at 2 μM in data set [11] was 347 µL/min/mg. For the same molecule, in data set [6], the Papp A→B at 90 min, 10 µM was 1.5 ×10⁻⁶ cm/s; the Papp B→A at 90 min, 10 µM came to 4.9 ×10⁻⁶ cm/s; the efflux ratio at 90 min, 10 μM is 3.3. In addition, on OGG1 [7], the “stimulation of OGG1 AP lyase activity” value was “Stimulation of OGG1 AP lyase activity was observed”; the incision mode entry is “both β and β,δ-elimination products and β,δ”. The “effect on level of cross-linked product” value at OGG1 [8] is “no discernible effect”. For the same molecule, the pK a result in data set [12] is listed as “≈ 6.55”.
